# Reference: US7655681B2, “Method of treating and diagnosing sleep disordered breathing and means for carrying out the method” (priority 2004, dated 2010)
# Columns and labels:
# [1] = cited from earlier work
# [2] = tested on: three male patients with light to moderate/severe OSA; test: Uncontrolled repeated dosing study of zonisamide with polysomnography; assay type: in vivo, human; conditions: for AHI, mean for all patients: baseline mean 30; for BMI, mean for all patients: baseline mean 32; for Sat. min, mean for all patients: baseline mean 84
# Experimental: Uncontrolled repeated dosing of zonisamide. An uncontrolled study of three male patients (mean BMI at baseline 32) with light to moderate/severe OSA treated with zonisamide up to an average of 177 days was performed. Polysomnography (standard sleep montage, nasal pressure recording) was undertaken at baseline. Zonisamide therapy was started at 50 or 100 mg o.d. orally (Zonegran® capsules). […] A repeat sleep study (follow-up 1) was undertaken. A further sleep study (follow-up 2) was performed after 165, 218 and 149 days at doses of 400, 600 and 200 mg, respectively. The follow-up 2 measurements were thus performed at a pharmacokinetical steady-state.
# [3] = tested on: patient with light to moderate OSA; test: Controlled repeated dosing, repeated withdrawal study of zonisamide with polysomnographic recording; assay type: in vivo, human; conditions: for Sat <90%/hr (number of episodes reaching an oxygen saturation below 90% per hour of sleep): Day 0 baseline 4; for B-gluc (blood glucose concentration): Day 0 baseline 6.7; for CSAI (central sleep apnea index): Day 0 baseline 8; for AI (apnea index, number of obstructive apneas per hour of sleep): Day 0 baseline 16; for HI (hypopnea index, number of obstructive hypopneas per hour of sleep): Day 0 baseline 22; for BMI (body mass index): Day 0 baseline 26.5; for AHI (apnea/hypopnea index): Day 0 baseline 38; for MinSat (lowest oxygen saturation value reached during the sleep recording): Day 0 baseline 82; for DBP (diastolic blood pressure): Day 0 baseline 95; for SBP (systolic blood pressure): Day 0 baseline 165
# Experimental: A controlled repeated dosing, repeated withdrawal study of zonisamide was undertaken in a patient (BMI 26.5) with light to moderate OSA (A/H index, 30 and 35 on previous screening). […] A baseline polysomographic recording (standard sleep montage, nasal pressure recording) was undertaken at baseline and zonisamide therapy was started at 100 mg o.d. orally (Zonegran® capsules) with an increase to 400 mg after two weeks and finally to 600 mg at the end of 12 weeks. Repeat sleep recordings were undertaken after 19 days (5 days on 400 mg) and after 90 days (6 days on 600 mg). The following key index data were recorded (Table 1).
# [4] = follow-up 1, mean dose 200 mg, mean 33 days of treatment
# [5] = follow-up 2, mean dose 400 mg, mean 177 days of treatment
# [6] = patient two, early titration phase, 50 mg zonisamide, simplified sleep recording
# [7] = Day 19 (5 days on 400 mg o.d. orally)
# [8] = Day 90 (6 days on 600 mg orally)
# [9] = during treatment, 100 to 600 mg orally
# [10] = starting already after 10 days of treatment
compound,measurement,setting,value
"NS(=O)(=O)Cc1noc2ccccc12 [zonisamide, 1,2-benzisoxazole-3-methanesulfonamide]",half-life in plasma,[1],about 60 hrs
same,apnea reducing effect,[2]; dosing levels from below 100 mg up to 600 mg daily,potent apnea reducing effect
same,"AHI, mean for all patients",[2]; [4],25 per hour of sleep
same,"BMI, mean for all patients",[2]; [4],31 kg/m^2
same,"Sat. min, mean for all patients",[2]; [4],85
same,"AHI, mean for all patients",[2]; [5],22 per hour of sleep
same,"BMI, mean for all patients",[2]; [5],30 kg/m^2
same,"Sat. min, mean for all patients",[2]; [5],86
same,AHI,"[2]; patient one, follow-up 1, dose 100 mg, 7 days of treatment, baseline 20",12 per hour of sleep
same,BMI,"[2]; patient one, follow-up 1, dose 100 mg, 7 days of treatment, baseline 28.3",28.3 kg/m^2
same,Sat. min (lowest oxygen saturation value reached during the sleep recording),"[2]; patient one, follow-up 1, dose 100 mg, 7 days of treatment, baseline 88",85
same,AHI,"[2]; patient one, follow-up 2, dose 200 mg, 149 days of treatment, baseline 20",11 per hour of sleep
same,BMI,"[2]; patient one, follow-up 2, dose 200 mg, 149 days of treatment, baseline 28.3",27.9 kg/m^2
same,Sat. min (lowest oxygen saturation value reached during the sleep recording),"[2]; patient one, follow-up 2, dose 200 mg, 149 days of treatment, baseline 88",90
same,BMI,"[2]; patient three, follow-up 1, dose 100 mg, 10 days of treatment, baseline 35.0",35.1 kg/m^2
same,AHI,"[2]; patient three, follow-up 1, dose 100 mg, 10 days of treatment, baseline 57",59 per hour of sleep
same,Sat. min (lowest oxygen saturation value reached during the sleep recording),"[2]; patient three, follow-up 1, dose 100 mg, 10 days of treatment, baseline 79",80
same,BMI,"[2]; patient three, follow-up 2, dose 600 mg, 218 days of treatment, baseline 35.0",33.5 kg/m^2
same,AHI,"[2]; patient three, follow-up 2, dose 600 mg, 218 days of treatment, baseline 57",53 per hour of sleep
same,Sat. min (lowest oxygen saturation value reached during the sleep recording),"[2]; patient three, follow-up 2, dose 600 mg, 218 days of treatment, baseline 79",78
same,AHI,[2]; [6],8
same,BMI,[2]; [6],31.3
same,AHI,"[2]; patient two, follow-up 1, dose 400 mg, 81 days of treatment, baseline 12",3 per hour of sleep
same,BMI,"[2]; patient two, follow-up 1, dose 400 mg, 81 days of treatment, baseline 31.4",30.7 kg/m^2
same,Sat. min (lowest oxygen saturation value reached during the sleep recording),"[2]; patient two, follow-up 1, dose 400 mg, 81 days of treatment, baseline 86",91
same,AHI,"[2]; patient two, follow-up 2, dose 400 mg, 165 days of treatment, baseline 12",3 per hour of sleep
same,BMI,"[2]; patient two, follow-up 2, dose 400 mg, 165 days of treatment, baseline 31.4",29.3 kg/m^2
same,Sat. min (lowest oxygen saturation value reached during the sleep recording),"[2]; patient two, follow-up 2, dose 400 mg, 165 days of treatment, baseline 86",90
same,daytime sleepiness,[2]; spontaneous reporting by the patients,overall positive effect
same,polysomnographically recorded sleep variables,"[2]; three patients, during treatment",not systematically affected
same,side effects,"[2]; three patients, up to 600 mg, up to an average of 177 days",No significant side effects were reported
same,Sat <90%/hr (number of episodes reaching an oxygen saturation below 90% per hour of sleep),[3]; [7],<1 per hour of sleep
same,B-gluc (blood glucose concentration),[3]; [7],6.4 mM
same,CSAI (central sleep apnea index),[3]; [7],2 per hour of sleep
same,"AI (apnea index, number of obstructive apneas per hour of sleep)",[3]; [7],4 per hour of sleep
same,"HI (hypopnea index, number of obstructive hypopneas per hour of sleep)",[3]; [7],9 per hour of sleep
same,BMI (body mass index),[3]; [7],26.4 kg/m^2
same,AHI (apnea/hypopnea index),[3]; [7],13 per hour of sleep
same,MinSat (lowest oxygen saturation value reached during the sleep recording),[3]; [7],89
same,DBP (diastolic blood pressure),[3]; [7],89 mmHg
same,SBP (systolic blood pressure),[3]; [7],155 mmHg
same,Sat <90%/hr (number of episodes reaching an oxygen saturation below 90% per hour of sleep),[3]; [8],0 per hour of sleep
same,B-gluc (blood glucose concentration),[3]; [8],5.9 mM
same,CSAI (central sleep apnea index),[3]; [8],2 per hour of sleep
same,"AI (apnea index, number of obstructive apneas per hour of sleep)",[3]; [8],2 per hour of sleep
same,"HI (hypopnea index, number of obstructive hypopneas per hour of sleep)",[3]; [8],6 per hour of sleep
same,BMI (body mass index),[3]; [8],25.6 kg/m^2
same,AHI (apnea/hypopnea index),[3]; [8],8 per hour of sleep
same,MinSat (lowest oxygen saturation value reached during the sleep recording),[3]; [8],90
same,DBP (diastolic blood pressure),[3]; [8],85 mmHg
same,SBP (systolic blood pressure),[3]; [8],145 mmHg
same,change in total sleep time,[3]; after zonisamide,no clinically significant change
same,side effects,"[3]; during the study period, up to 600 mg orally, 90 days",No side effects were reported
same,number of mixed events,[3]; [9],decreased in proportion to the number of obstructive events
same,polysomnographically recorded sleep variables,[3]; [9],not systematically affected
same,apnea reducing effect,[3]; obstructive and central events,potent apnea reducing effect
same,daytime sleepiness,"[3]; spontaneous reporting, already after 10 days of treatment",markedly reduced
same,blood glucose concentration,[3]; [10],gradually reduced
same,blood pressure,[3]; [10],gradually reduced
same,nocturnal snoring episodes,"[3]; subjective and spouse reports, soon after onset of treatment",clear reduction
